Measurements reported in ChEMBL document CHEMBL1130729, “Synthesis and transporter binding properties of (R)-2 beta, 3 beta- and (R)-2 alpha, 3 alpha-diaryltropanes” (Bioorg Med Chem Lett, 1998).

What was measured:
[1] = target: Norepinephrine transporter (Rattus norvegicus, UniProt Q9WTR4); assay: Inhibitory activity against radioligand [3H]nisoxetine binding at the norepinephrine transporter
[2] = target: Sodium-dependent dopamine transporter (Rattus norvegicus, UniProt P23977); assay: Inhibitory activity against radioligand [3H]WIN-35428 binding at the dopamine transporter
Sequence of Sodium-dependent dopamine transporter (P23977 whole entry): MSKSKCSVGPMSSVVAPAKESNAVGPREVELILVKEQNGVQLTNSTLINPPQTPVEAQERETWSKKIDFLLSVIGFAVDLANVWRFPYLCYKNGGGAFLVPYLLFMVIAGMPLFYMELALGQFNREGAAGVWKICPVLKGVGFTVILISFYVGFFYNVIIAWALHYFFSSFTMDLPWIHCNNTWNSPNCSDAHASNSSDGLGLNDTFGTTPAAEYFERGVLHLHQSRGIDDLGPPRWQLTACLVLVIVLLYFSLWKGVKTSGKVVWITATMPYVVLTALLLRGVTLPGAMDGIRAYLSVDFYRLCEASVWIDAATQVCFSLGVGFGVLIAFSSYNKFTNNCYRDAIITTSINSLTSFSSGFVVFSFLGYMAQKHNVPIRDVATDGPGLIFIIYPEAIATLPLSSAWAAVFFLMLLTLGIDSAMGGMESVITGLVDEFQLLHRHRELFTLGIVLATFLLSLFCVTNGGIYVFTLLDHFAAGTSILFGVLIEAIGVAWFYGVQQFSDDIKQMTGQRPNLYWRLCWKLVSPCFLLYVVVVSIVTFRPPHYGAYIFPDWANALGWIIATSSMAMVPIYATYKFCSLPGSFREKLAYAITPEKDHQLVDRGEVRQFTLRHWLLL

[3] = target: Sodium-dependent serotonin transporter (Rattus norvegicus, UniProt P31652); assay: Inhibitory activity against radioligand [3H]paroxetine binding at the serotonin transporter
Sequence of Sodium-dependent serotonin transporter (P31652 whole entry): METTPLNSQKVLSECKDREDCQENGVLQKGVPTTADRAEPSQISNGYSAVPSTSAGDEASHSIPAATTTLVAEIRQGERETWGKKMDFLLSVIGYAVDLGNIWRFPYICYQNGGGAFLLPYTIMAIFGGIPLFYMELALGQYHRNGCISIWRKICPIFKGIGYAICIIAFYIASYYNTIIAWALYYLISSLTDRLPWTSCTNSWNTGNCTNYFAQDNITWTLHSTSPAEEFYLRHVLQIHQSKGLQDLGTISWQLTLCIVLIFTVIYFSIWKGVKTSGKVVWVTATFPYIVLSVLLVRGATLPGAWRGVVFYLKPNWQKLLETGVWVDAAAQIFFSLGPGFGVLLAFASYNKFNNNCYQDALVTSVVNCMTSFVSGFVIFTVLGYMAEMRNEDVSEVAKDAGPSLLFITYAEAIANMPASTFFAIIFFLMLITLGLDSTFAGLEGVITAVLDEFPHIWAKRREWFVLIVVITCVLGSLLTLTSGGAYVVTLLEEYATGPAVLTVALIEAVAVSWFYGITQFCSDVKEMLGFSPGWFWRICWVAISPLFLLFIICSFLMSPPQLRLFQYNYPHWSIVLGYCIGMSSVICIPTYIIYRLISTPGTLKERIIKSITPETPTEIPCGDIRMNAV

Sequence of Norepinephrine transporter (Q9WTR4 whole entry): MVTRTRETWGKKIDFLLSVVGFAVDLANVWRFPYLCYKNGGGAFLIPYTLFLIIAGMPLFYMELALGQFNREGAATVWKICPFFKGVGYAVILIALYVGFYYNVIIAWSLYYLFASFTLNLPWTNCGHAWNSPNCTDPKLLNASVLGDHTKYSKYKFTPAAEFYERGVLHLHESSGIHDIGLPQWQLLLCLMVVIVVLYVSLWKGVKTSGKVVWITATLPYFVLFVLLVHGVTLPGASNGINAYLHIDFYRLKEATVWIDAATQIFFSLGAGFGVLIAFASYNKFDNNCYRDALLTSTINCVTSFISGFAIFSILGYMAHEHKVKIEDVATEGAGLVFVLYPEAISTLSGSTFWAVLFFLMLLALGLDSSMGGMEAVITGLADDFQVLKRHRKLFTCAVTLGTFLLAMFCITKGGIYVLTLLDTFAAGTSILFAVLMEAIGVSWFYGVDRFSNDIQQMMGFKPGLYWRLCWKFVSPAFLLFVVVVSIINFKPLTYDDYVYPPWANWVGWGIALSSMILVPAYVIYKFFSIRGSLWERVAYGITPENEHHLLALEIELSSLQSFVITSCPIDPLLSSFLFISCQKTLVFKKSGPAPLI

Row | Structure (SMILES) | IC50 [1] [nM] | IC50 [2] [nM] | IC50 [3] [nM]
1 | CN1[C@@H]2CC[C@H]1C(c1ccccc1)C(c1ccccc1)C2 (mixture of isomers; form 1) | 2670 | 28 | 34700
2 | CN1[C@@H]2CC[C@H]1C(c1ccccc1)C(c1ccccc1)C2 (mixture of isomers; form 2) | 2770 |  | 186000
3 | CN1C2CC[C@@H]1C[C@@H](c1ccccc1)[C@@H]2c1ccccc1 (single isomer, unassigned; form 1) | 917 | 12.6 | 21100
4 | CN1C2CC[C@@H]1C[C@@H](c1ccccc1)[C@@H]2c1ccccc1 (single isomer, unassigned; form 2) | 1040 | 690 | 41300
5 | Cc1ccc(C2C[C@H]3CCC(C2c2ccccc2)N3C)cc1 (stereo in doubt; (R)-3b) | 479 | 1.96 | 11000
6 | Cc1ccc(C2C[C@H]3CCC(C2c2ccccc2)N3C)cc1 (stereo in doubt; (R)-4b) | 4850 | 429 | 15800
